In patent US11053204B2, “Pyrimidinyloxy benzene derivatives as herbicides” (FMC Corporation, priority 2015, dated 2021):

Assays:
Assay type in all cases: in vivo
[1] = system: galium (catchweed bedstraw, Galium aparine); assay: Test C preemergence, plant response rating
[2] = system: johnsongrass (Sorghum halepense); assay: Test C preemergence, plant response rating
[3] = system: barnyardgrass (Echinochloa crus-galli); assay: Test C preemergence, plant response rating; settings: Preemergence
[4] = system: pigweed, palmer (palmer pigweed, Amaranthus palmeri); assay: Test C preemergence, plant response rating
[5] = system: kochia (Kochia scoparia); assay: Test C preemergence, plant response rating
[6] = system: windgrass (Apera spica-venti); assay: Test C preemergence, plant response rating
[7] = system: Canada thistle (Cirsium arvense); assay: Test C postemergence, plant response rating; settings: for Canada Thistle plant response rating: scale 0 to 100 (0 no effect, 100 complete control)
Method in brief: (§1)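 Greenhouse plants rated visually against untreated controls 13–15 d after treatment, scale 0 = no effect to 100 = complete control. Postemergence sprays went onto potted plants 2–18 cm tall (1–4 leaves); preemergence sprays onto soil freshly sown in loam–sand or silt loam, chemicals formulated in non-phytotoxic solvent with surfactant.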

[8] = system: buckwheat, wild (wild buckwheat, Polygonum convolvulus); assay: Test C postemergence, plant response rating; settings: for Buckwheat, Wild plant response rating: scale 0 to 100 (0 no effect, 100 complete control)
Method in brief: as §1

[9] = system: field poppy (Papaver rhoeas); assay: Test C postemergence, plant response rating; settings: for Field Poppy plant response rating: scale 0 to 100 (0 no effect, 100 complete control)
Method in brief: as §1

[10] = system: field violet (Viola arvensis); assay: Test C postemergence, plant response rating; settings: for Field Violet plant response rating: scale 0 to 100 (0 no effect, 100 complete control)
Method in brief: as §1

[11] = system: geranium, cutleaf (cutleaf geranium, Geranium dissectum); assay: Test C postemergence, plant response rating; settings: for Geranium, Cutleaf plant response rating: scale 0 to 100 (0 no effect, 100 complete control)
Method in brief: as §1

[12] = system: johnsongrass (Sorghum halepense); assay: Test C postemergence, plant response rating; settings: for Johnsongrass plant response rating: scale 0 to 100 (0 no effect, 100 complete control)
Method in brief: as §1

[13] = system: nightshade (eastern black nightshade, Solanum ptycanthum); assay: Test C postemergence, plant response rating; settings: for Nightshade plant response rating: scale 0 to 100 (0 no effect, 100 complete control)
Method in brief: as §1

[14] = system: pigweed, palmer (palmer pigweed, Amaranthus palmeri); assay: Test C postemergence, plant response rating; settings: for Pigweed, Palmer plant response rating: scale 0 to 100 (0 no effect, 100 complete control)
Method in brief: as §1

[15] = system: speedwell (bird's-eye speedwell, Veronica persica); assay: Test C postemergence, plant response rating; settings: for Speedwell plant response rating: scale 0 to 100 (0 no effect, 100 complete control)
Method in brief: as §1

[16] = system: surinam grass (Brachiaria decumbens); assay: Test C postemergence, plant response rating
Method in brief: as §1

[17] = system: wild mustard (Sinapis arvensis); assay: Test C postemergence, plant response rating; settings: for Mustard, Wild plant response rating: scale 0 to 100 (0 no effect, 100 complete control)
Method in brief: as §1

[18] = system: wild poinsettia (Euphorbia heterophylla); assay: Test C postemergence, plant response rating; settings: for Poinsettia, Wild plant response rating: scale 0 to 100 (0 no effect, 100 complete control)
Method in brief: as §1

[19] = system: windgrass (Apera spica-venti); assay: Test C postemergence, plant response rating
Method in brief: as §1

[20] = 125 g ai/ha, scale 0 to 100 (0 no effect, 100 complete control)

## FC(F)(F)CCCCc1c(Br)cccc1Oc1ncc(Cl)cn1 [Compound 138]
[1]; 31 g ai/ha, scale 0 to 100
  Plant response rating, Galium: 0
[1]; 62 g ai/ha, scale 0 to 100
  Plant response rating, Galium: 5
[1]; 125 g ai/ha, scale of 0 to 100
  Plant response rating, Galium: 5
[2]; 31 g ai/ha, scale 0 to 100
  Plant response rating, Johnsongrass: 0
[2]; 62 g ai/ha, scale 0 to 100
  Plant response rating, Johnsongrass: 50
[2]; 125 g ai/ha, scale of 0 to 100
  Plant response rating, Johnsongrass: 60
[3]; 125 g ai/ha, scale of 0 to 100
  Plant response rating, Barnyardgrass: 95
[3]; 16 g ai/ha, scale 0 to 100
  Plant response rating, Barnyardgrass: 20
[3]; 31 g ai/ha, scale 0 to 100
  Plant response rating, Barnyardgrass: 40
[3]; 62 g ai/ha, scale 0 to 100
  Plant response rating, Barnyardgrass: 80
[4]; 31 g ai/ha, scale 0 to 100
  Plant response rating, Pigweed, Palmer: 60
[4]; 62 g ai/ha, scale 0 to 100
  Plant response rating, Pigweed, Palmer: 100
[4]; 125 g ai/ha, scale of 0 to 100
  Plant response rating, Pigweed, Palmer: 100
[5]; 31 g ai/ha, scale 0 to 100
  Plant response rating, Kochia: 75
[5]; 62 g ai/ha, scale 0 to 100
  Plant response rating, Kochia: 80
[5]; 125 g ai/ha, scale of 0 to 100
  Plant response rating, Kochia: 80
[6]; 31 g ai/ha, scale 0 to 100
  Plant response rating, Windgrass: 100
[6]; 62 g ai/ha, scale 0 to 100
  Plant response rating, Windgrass: 100
[6]; 125 g ai/ha, scale of 0 to 100
  Plant response rating, Windgrass: 100
[7]; 16 g ai/ha, scale of 0 to 100
  Plant response rating, Canada Thistle: 80
[7]; 31 g ai/ha, scale 0 to 100
  Plant response rating, Canada Thistle: 80
[7]; 62 g ai/ha
  Canada Thistle plant response rating: 90
[7]; 125 g ai/ha
  Canada Thistle plant response rating: 95
[8]; 16 g ai/ha, scale of 0 to 100
  Plant response rating, Buckwheat, Wild: 70
[8]; 31 g ai/ha, scale 0 to 100
  Plant response rating, Buckwheat, Wild: 80
[8]; 62 g ai/ha
  Buckwheat, Wild plant response rating: 100
[8]; 125 g ai/ha
  Buckwheat, Wild plant response rating: 100
[9]; 16 g ai/ha, scale of 0 to 100
  Plant response rating, Field Poppy: 100
[9]; 31 g ai/ha, scale 0 to 100
  Plant response rating, Field Poppy: 100
[9]; 62 g ai/ha
  Field Poppy plant response rating: 100
[9]; 125 g ai/ha
  Field Poppy plant response rating: 100
[10]; 16 g ai/ha, scale of 0 to 100
  Plant response rating, Field Violet: 90
[10]; 31 g ai/ha, scale 0 to 100
  Plant response rating, Field Violet: 95
[10]; 62 g ai/ha
  Field Violet plant response rating: 100
[10]; 125 g ai/ha
  Field Violet plant response rating: 100
[11]; 16 g ai/ha, scale of 0 to 100
  Plant response rating, Geranium, Cutleaf: 30
[11]; 31 g ai/ha, scale 0 to 100
  Plant response rating, Geranium, Cutleaf: 35
[11]; 62 g ai/ha
  Geranium, Cutleaf plant response rating: 55
[11]; 125 g ai/ha
  Geranium, Cutleaf plant response rating: 60
[12]; 16 g ai/ha, scale of 0 to 100
  Plant response rating, Johnsongrass: 10
[12]; 31 g ai/ha, scale 0 to 100
  Plant response rating, Johnsongrass: 25
[12]; 62 g ai/ha
  Johnsongrass plant response rating: 80
[12]; 125 g ai/ha
  Johnsongrass plant response rating: 90
[13]; 16 g ai/ha, scale of 0 to 100
  Plant response rating, Nightshade: 75
[13]; 31 g ai/ha, scale 0 to 100
  Plant response rating, Nightshade: 80
[13]; 62 g ai/ha
  Nightshade plant response rating: 100
[13]; 125 g ai/ha
  Nightshade plant response rating: 98
[14]; 16 g ai/ha, scale of 0 to 100
  Plant response rating, Pigweed, Palmer: 75
[14]; 31 g ai/ha, scale 0 to 100
  Plant response rating, Pigweed, Palmer: 80
[14]; 62 g ai/ha
  Pigweed, Palmer plant response rating: 90
[14]; 125 g ai/ha
  Pigweed, Palmer plant response rating: 98
[15]; 16 g ai/ha, scale of 0 to 100
  Plant response rating, Speedwell: 95
[15]; 31 g ai/ha, scale 0 to 100
  Plant response rating, Speedwell: 100
[15]; 62 g ai/ha
  Speedwell plant response rating: 100
[15]; 125 g ai/ha
  Speedwell plant response rating: 100
[16]; 16 g ai/ha, scale of 0 to 100
  Plant response rating, Surinam Grass: 20
[16]; 31 g ai/ha, scale 0 to 100
  Plant response rating, Surinam Grass: 20
[16]; [20]
  Surinam Grass plant response rating: 35
[17]; 16 g ai/ha, scale of 0 to 100
  Plant response rating, Mustard, Wild: 100
[17]; 31 g ai/ha, scale 0 to 100
  Plant response rating, Mustard, Wild: 100
[17]; 62 g ai/ha
  Mustard, Wild plant response rating: 100
[17]; 125 g ai/ha
  Mustard, Wild plant response rating: 100
[18]; 16 g ai/ha, scale of 0 to 100
  Plant response rating, Poinsettia, Wild: 30
[18]; 31 g ai/ha, scale 0 to 100
  Plant response rating, Poinsettia, Wild: 60
[18]; 62 g ai/ha
  Poinsettia, Wild plant response rating: 75
[18]; 125 g ai/ha
  Poinsettia, Wild plant response rating: 90
[19]; 16 g ai/ha, scale of 0 to 100
  Plant response rating, Windgrass: 0
[19]; 31 g ai/ha, scale 0 to 100
  Plant response rating, Windgrass: 15
[19]; [20]
  Windgrass plant response rating: 50
